For one experiment, the target named is T1, human recombinant HDAC6 (Homo sapiens, UniProt Q9UBN7).
T1 construct: purchased Calbiochem Inc. 382180
T1 sequence (Q9UBN7 1-1215): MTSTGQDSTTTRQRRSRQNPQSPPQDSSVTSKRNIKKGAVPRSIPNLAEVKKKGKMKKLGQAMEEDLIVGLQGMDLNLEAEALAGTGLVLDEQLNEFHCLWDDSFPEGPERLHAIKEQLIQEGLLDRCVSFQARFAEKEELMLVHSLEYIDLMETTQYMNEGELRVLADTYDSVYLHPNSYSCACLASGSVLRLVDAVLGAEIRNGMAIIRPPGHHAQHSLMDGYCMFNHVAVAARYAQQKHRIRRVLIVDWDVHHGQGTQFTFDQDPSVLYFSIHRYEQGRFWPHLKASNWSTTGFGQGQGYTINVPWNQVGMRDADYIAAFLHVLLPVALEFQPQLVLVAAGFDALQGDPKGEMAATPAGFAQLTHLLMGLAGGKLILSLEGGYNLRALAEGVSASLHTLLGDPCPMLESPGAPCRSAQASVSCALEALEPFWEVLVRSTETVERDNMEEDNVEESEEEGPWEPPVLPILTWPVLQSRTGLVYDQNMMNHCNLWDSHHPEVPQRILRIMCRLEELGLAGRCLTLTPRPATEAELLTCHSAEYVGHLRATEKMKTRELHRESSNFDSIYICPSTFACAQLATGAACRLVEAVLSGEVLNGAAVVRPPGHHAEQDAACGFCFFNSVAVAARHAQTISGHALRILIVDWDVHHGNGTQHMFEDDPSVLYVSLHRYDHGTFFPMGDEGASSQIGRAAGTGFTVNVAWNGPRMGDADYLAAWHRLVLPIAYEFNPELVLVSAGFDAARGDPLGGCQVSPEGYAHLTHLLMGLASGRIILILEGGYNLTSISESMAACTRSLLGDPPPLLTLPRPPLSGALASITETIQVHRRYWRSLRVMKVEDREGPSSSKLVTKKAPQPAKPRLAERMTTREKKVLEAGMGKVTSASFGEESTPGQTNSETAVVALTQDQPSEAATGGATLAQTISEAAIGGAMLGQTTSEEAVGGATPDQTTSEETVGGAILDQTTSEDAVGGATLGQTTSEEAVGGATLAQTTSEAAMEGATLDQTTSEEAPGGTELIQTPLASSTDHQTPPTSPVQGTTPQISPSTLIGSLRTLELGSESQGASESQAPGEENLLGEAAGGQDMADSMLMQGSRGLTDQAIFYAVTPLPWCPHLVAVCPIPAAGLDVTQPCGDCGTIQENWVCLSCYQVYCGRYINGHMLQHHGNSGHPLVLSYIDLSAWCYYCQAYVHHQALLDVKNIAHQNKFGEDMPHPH
Briefly: HDAC6 enzyme activity inhibition (HDAC Fluorimetric Drug Discovery Kit). The experiment is classed as biochemical. The gist of the method:
(§1)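 Fluorescence from a Fluor de Lys developer step (30 minutes) reports residual deacetylation after a 60-minute, 30° C reaction of […] enzyme with 10 μM substrate and 5-fold compound dilutions.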

In a further experiment the target is T2, human recombinant HDAC1 (Homo sapiens, UniProt Q13547).
T2 construct: purchased Enzo Life Science, Inc. BML-SE456
T2 sequence (Q13547 whole entry): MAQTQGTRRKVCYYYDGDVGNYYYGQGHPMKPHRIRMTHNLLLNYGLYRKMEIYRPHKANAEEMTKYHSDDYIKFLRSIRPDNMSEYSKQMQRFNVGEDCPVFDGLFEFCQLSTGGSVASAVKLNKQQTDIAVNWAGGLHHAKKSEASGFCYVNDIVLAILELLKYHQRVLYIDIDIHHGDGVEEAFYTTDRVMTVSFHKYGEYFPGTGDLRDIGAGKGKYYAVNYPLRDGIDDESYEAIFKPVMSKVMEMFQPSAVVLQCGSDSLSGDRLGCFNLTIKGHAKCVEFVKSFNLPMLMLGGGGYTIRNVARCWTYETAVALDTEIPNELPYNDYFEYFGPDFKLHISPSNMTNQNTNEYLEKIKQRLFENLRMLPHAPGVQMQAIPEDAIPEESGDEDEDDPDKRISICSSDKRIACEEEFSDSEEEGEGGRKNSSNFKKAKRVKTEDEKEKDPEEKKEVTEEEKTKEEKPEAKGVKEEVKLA
In words: HDAC1 enzyme activity inhibition (HDAC Fluorimetric Drug Discovery Kit). It counts as biochemical. An outline of the steps:
as §1

The mark [1] stands for this setting: human recombinant HDAC6, IC50 calculated with GraphPad Prism.
Setting [2] is: human recombinant HDAC1, IC50 calculated with GraphPad Prism, read-out: HDAC1.
[3] abbreviates: human recombinant HDAC6, same protocol as HDAC1.
Where [4] appears, read: human recombinant HDAC1, Fluor de Lys substrate, 30° C. 60 minutes, read-out: HDAC1.

Read-outs that look alike come from different tables or passages of the source.

`FC1CN(Cc2cccc(-c3cn(Cc4ccc(-c5nnc(C(F)F)o5)cc4)nn3)c2)C1` [Compound 4410, 2-(difluoromethyl)-5-(4-((4-(3-((3-fluoroazetidin-1-yl)methyl)phenyl)-1H-1,2,3-triazol-1-yl)methyl)phenyl)-1,3,4-oxadiazole]: at human recombinant HDAC6 (HDAC1 IC50 / HDAC6 IC50), the “HDAC6 selectivity (fold)” value came out at 781 fold. For the same molecule, the IC50 is 64 nM on human recombinant HDAC6 (setting [1]) and above 50000 nM at human recombinant HDAC1 (setting [2]).
Take `CCN1CCN(Cc2ccccc2-c2cn(Cc3ccc(-c4nnc(C(F)F)o4)cc3F)nn2)CC1` [Compound 4588, 2-(difluoromethyl)-5-(4-((4-(2-((4-ethylpiperazin-1-yl)methyl)phenyl)-1H-1,2,3-triazol-1-yl)methyl)-3-fluorophenyl)-1,3,4-oxadiazole]: the “HDAC6 selectivity (fold)” value at human recombinant HDAC6 (HDAC6 over HDAC1) stood at 229 fold. Also, the IC50 at human recombinant HDAC6 (setting [3]) is 218 nM; on human recombinant HDAC1 (setting [4]), above 50000 nM.
With `CCN1CC(c2cccc(-c3cn(Cc4ccc(-c5nnc(C(F)F)o5)cn4)nn3)c2)C1` [Compound 4502, 2-(difluoromethyl)-5-(6-((4-(3-(1-ethylazetidin-3-yl)phenyl)-1H-1,2,3-triazol-1-yl)methyl)pyridin-3-yl)-1,3,4-oxadiazole], on human recombinant HDAC6 (HDAC6 over HDAC1), the “HDAC6 selectivity (fold)” value is reported as 3571 fold. The IC50 is 14.2 nM on human recombinant HDAC6 (setting [3]) and above 50000 nM at human recombinant HDAC1 (setting [4]).
For `CCN1CC(c2cccc(-c3cn(Cc4ccc(-c5nnc(C(F)F)o5)cc4)nn3)c2)C1` [Compound 4508, 2-(difluoromethyl)-5-(4-((4-(3-(1-ethylazetidin-3-yl)phenyl)-1H-1,2,3-triazol-1-yl)methyl)phenyl)-1,3,4-oxadiazole] the same measures were 1381 fold, 36.2 nM and above 50000 nM.
For `Fc1cc(-c2nnc(C(F)F)o2)cnc1Cn1cc(-c2ccc(CN3CCCC3)c(Cl)c2)nn1` [Compound 19096] the same measures were 529 fold, 94.4 nM and above 50000 nM.
As to `Fc1cc(-c2nnc(C(F)F)o2)ccc1Cn1cc(-c2ccc(N3CCN(C4CCOCC4)CC3)c(F)c2)nn1` [Compound 18327, 2-(difluoromethyl)-5-(3-fluoro-4-((4-(3-fluoro-4-(4-(tetrahydro-2H-pyran-4-yl)piperazin-1-yl)phenyl)-1H-1,2,3-triazol-1-yl)methyl)phenyl)-1,3,4-oxadiazole], the “HDAC6 selectivity (fold)” value on human recombinant HDAC6 (HDAC6 over HDAC1) came to 502 fold. For the same molecule, the IC50 was 99.5 nM at human recombinant HDAC6 (setting [3]) and above 50000 nM at human recombinant HDAC1.
Take `CN1CC(NCc2ccc(-c3cn(Cc4ccc(-c5nnc(C(F)F)o5)cn4)nn3)cc2)C1` [Compound 4567, N-(4-(1-((5-(5-(difluoromethyl)-1,3,4-oxadiazol-2-yl)pyridin-2-yl)methyl)-1H-1,2,3-triazol-4-yl)benzyl)-1-methylazetidin-3-amine]: the “HDAC6 selectivity (fold)” value at human recombinant HDAC6 (HDAC6 over HDAC1) stood at 1333 fold. Besides, the values for the IC50 at human recombinant HDAC6 (setting [3]) and at human recombinant HDAC1 (setting [4]) were 37.5 nM and above 50000 nM, respectively.
Regarding `Fc1ccc(N2CCNCC2)cc1-c1cn(Cc2ccc(-c3nnc(C(F)F)o3)cc2)nn1` [Compound 4450, 2-(difluoromethyl)-5-(4-((4-(2-fluoro-5-(piperazin-1-yl)phenyl)-1H-1,2,3-triazol-1-yl)methyl)phenyl)-1,3,4-oxadiazole], the “HDAC6 selectivity (fold)” value at human recombinant HDAC6 (HDAC1 IC50 / HDAC6 IC50) worked out at 2604 fold. Further, the values for the IC50 at human recombinant HDAC6 (setting [1]) and on human recombinant HDAC1 (setting [2]) were 19.2 nM and above 50000 nM, respectively.
For `FC(F)c1nnc(-c2ccc(Cn3cc(C4(F)CCN(C5COC5)CC4)nn3)nc2)o1` [Compound 4008, 2-(difluoromethyl)-5-(6-((4-(4-fluoro-1-(oxetan-3-yl)piperidin-4-yl)-1H-1,2,3-triazol-1-yl)methyl)pyridin-3-yl)-1,3,4-oxadiazole] the same measures were 408 fold, 122 nM and above 50000 nM.
For `CN1CCN(Cc2cccc(-c3cn(Cc4ccc(-c5nnc(C(F)F)o5)cc4)nn3)c2)CC1` [Compound 4414] the same measures were 627 fold, 79.7 nM and above 50000 nM.
For `FC(F)c1nnc(-c2ccc(Cn3cc(C4CCCC4)nn3)nc2)o1` [Compound 3846, 2-(6-((4-cyclopentyl-1H-1,2,3-triazol-1-yl)methyl)pyridin-3-yl)-5-(difluoromethyl)-1,3,4-oxadiazole] the same measures were 630 fold, 79.3 nM and above 50000 nM.
With `FC(F)c1nnc(-c2ccc(Cn3cc(-c4ccc5c(c4)CN(C4CCC4)CC5)nn3)nc2)o1` [Compound 4212, 2-(6-((4-(2-cyclobutyl-1,2,3,4-tetrahydroisoquinolin-7-yl)-1H-1,2,3-triazol-1-yl)methyl)pyridin-3-yl)-5-(difluoromethyl)-1,3,4-oxadiazole], on human recombinant HDAC6 (HDAC1 IC50 / HDAC6 IC50), the “HDAC6 selectivity (fold)” value amounted to 1602 fold. The IC50 on human recombinant HDAC6 (setting [1]) is 31.2 nM; at human recombinant HDAC1 (setting [2]), above 50000 nM.
In the case of `Fc1cc(-c2nnc(C(F)F)o2)cnc1Cn1cc(-c2ccc3c(c2)CN(C2CCC2)CC3)nn1` [Compound 19004], on human recombinant HDAC6 (HDAC6 over HDAC1), the “HDAC6 selectivity (fold)” value was determined as 640 fold. The results for the IC50 on human recombinant HDAC6 (setting [3]) and on human recombinant HDAC1 (setting [4]) were 78.1 nM and above 50000 nM, respectively.
Turning to `O=C(O)c1cccc(-c2cn(Cc3ccc(-c4nnc(C(F)F)o4)cc3)nn2)c1` [Compound 3659, 3-(1-(4-(5-(difluoromethyl)-1,3,4-oxadiazol-2-yl)benzyl)-1H-1,2,3-triazol-4-yl)benzoic acid], the “HDAC6 selectivity (fold)” value at human recombinant HDAC6 (HDAC1 IC50 / HDAC6 IC50) came to 122 fold. Also, the values for the IC50 on human recombinant HDAC6 (setting [1]) and on human recombinant HDAC1 (setting [2]) were 409 nM and above 50000 nM, respectively.
On to `Fc1cc(-c2nnc(C(F)F)o2)ccc1Cn1cc(-c2cccc(N3CCN(CC4CC(F)(F)C4)CC3)c2F)nn1` [Compound 4603, 2-(4-((4-(3-(4-((3,3-difluorocyclobutyl)methyl)piperazin-1-yl)-2-fluorophenyl)-1H-1,2,3-triazol-1-yl)methyl)-3-fluorophenyl)-5-(difluoromethyl)-1,3,4-oxadiazole], for which the “HDAC6 selectivity (fold)” value at human recombinant HDAC6 (HDAC6 over HDAC1) was 744 fold. The values for the IC50 at human recombinant HDAC6 (setting [3]) and on human recombinant HDAC1 (setting [4]) were 67.2 nM and above 50000 nM, respectively.
For `CCN1CCN(c2cccc(-c3cn(Cc4ccc(-c5nnc(C(F)F)o5)cc4F)nn3)c2F)CC1` [Compound 4577, 2-(difluoromethyl)-5-(4-((4-(3-(4-ethylpiperazin-1-yl)-2-fluorophenyl)-1H-1,2,3-triazol-1-yl)methyl)-3-fluorophenyl)-1,3,4-oxadiazole] the same measures were 2688 fold, 18.6 nM and above 50000 nM.
For `CN(C)Cc1ccc(-c2cn(Cc3ncc(-c4nnc(C(F)F)o4)cc3F)nn2)cc1F` [Compound 18949, 1-(4-(1-((5-(5-(difluoromethyl)-1,3,4-oxadiazol-2-yl)-3-fluoropyridin-2-yl)methyl)-1H-1,2,3-triazol-4-yl)-2-fluorophenyl)-N,N-dimethylmethanamine] the same measures were 759 fold, 65.8 nM and above 50000 nM.
On to `Fc1cc(-c2nnc(C(F)F)o2)cnc1Cn1cc(-c2cc(Cl)cc(CN3CCC3)c2)nn1` [Compound 19091, 2-(6-((4-(3(-azetidin-1-ylmethyl)-5-chlorophenyl)-1H-1,2,3-triazol-1-yl)methyl)-5-fluoropyridin-3-yl)-5-(difluoromethyl)-1,3,4-oxadiazole], for which the “HDAC6 selectivity (fold)” value at human recombinant HDAC6 (HDAC6 over HDAC1) is recorded as 435 fold. In addition, the results for the IC50 at human recombinant HDAC6 (setting [3]) and on human recombinant HDAC1 (setting [4]) were 115 nM and above 50000 nM, respectively.
For `Fc1cc(-c2cn(Cc3ncc(-c4nnc(C(F)F)o4)cc3F)nn2)ccc1CN1CCC1` [Compound 18947, 2-(6-((4-(4-(azetidin-1-ylmethyl)-3-fluorophenyl)-1H-1,2,3-triazol-1-yl)methyl)-5-fluoropyridin-3-yl)-5-(difluoromethyl)-1,3,4-oxadiazole] the same measures were 1262 fold, 39.6 nM and above 50000 nM.

The values are drawn from patent US20230257372A1 (CHONG KUN DANG PHARMACEUTICAL CORP., priority 2020, published 2023).
